Laboratory results reported in ChEMBL document CHEMBL1201862, “PubChem BioAssay data set” (2004).
Calls of active or inactive are those of the source.

Key:
[1] = inhibitors of non-replicating M. tuberculosis, dose response, luciferase, dry powder (AID 651620); format: functional; settings: Mycobacterium tuberculosis
[2] = inhibitors of non-replicating M. tuberculosis, dose response, luciferase, dry powder (AID 651619); format: functional; settings: Mycobacterium tuberculosis
[3] = cytotoxicity in OV-90 ovarian cancer cells, dose response, PAX8 inhibitor project, cell-based, plate reader, dry powder, SA8 (AID 743149); format: functional
[4] = PAX2 cell-based inhibition, dose response, selectivity assay for PAX8 inhibitor project, plate reader, dry powder samples (AID 743048); format: functional;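 also: HEK293 cells carrying a WT1 promoter luciferase reporter driven by expressed Pax2; potency is for inhibition of Pax2 driven reporter signal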
[5] = cytotoxicity dependent on PAX8, dose response, cell-based, plate reader, dry powder (AID 743049); format: functional
[6] = PAX5 activity inhibitors, dose response, selectivity assay for PAX8 inhibitor project, cell-based, plate reader, dry powder samples (AID 743047); format: functional;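 also: HEK293 cells carrying a Pax5 driven CD19 promoter luciferase reporter; potency of inhibitors that lower reporter luminescence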
Paired box protein Pax-8 = Paired box protein Pax-8 (Homo sapiens, UniProt Q06710); assay: inhibitors of PAX8-driven TPO luciferase reporter, dose response, RMG-I cells, cherry-pick (AID 687027); format: functional, cell-based;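 also: luciferase reporter driven by Pax8 target thyroperoxidase promoter measured by SteadyGlo luminescence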
[7] = molecular target: Kappa-type opioid receptor (Homo sapiens, UniProt P41145); assay: OPRK1 antagonists, late-stage follow-up, cell-based, fluorescence, dose response (AID 652032); format: functional
[8] = NIH:OVCAR-3 ovarian cancer cell cytotoxicity, dose response, PAX8 inhibitor project, plate reader, dry powder samples (AID 743044); format: functional, cell-based
[9] = IOSE-T80 ovarian epithelial cell cytotoxicity, dose response, cytotoxicity control for PAX8 inhibitor project, plate reader, dry powder samples (AID 743045); format: functional, cell-based
[10] = cytotoxicity in OVCAR8 ovarian cancer cells, dose response, PAX8 project, cell-based, plate reader, dry powder samples (AID 743197); format: functional; settings: OVCAR-8
Vero = assay: Vero cell toxicity, dose response, cytotoxicity control, plate reader, cherry-pick samples (AID 687020); format: functional, cell-based; settings: Chlorocebus sabaeus
[11] = T. cruzi growth inhibition in host cells, dose response, cell-based, plate reader, dry powder, set 2 (AID 652275); format: functional
[12] = NIH/3T3 fibroblast cytotoxicity, dose response, cytotoxicity control, cell-based, plate reader, dry powder, set 2 (AID 652280); format: functional; settings: NIH3T3
[13] = A375 melanoma cell viability loss, dose response, counter-screen for MITF inhibitor project, CellTiter-Glo luminescence, dry powder, set 4 (AID 624364); format: functional, cell-based; settings: A-375;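 also: A375 melanoma cells are MITF independent so this is a counter screen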
[14] = A375 melanoma cell cytotoxicity, dose response, counter-screen for MITF inhibitor project, CellTiter-Glo luminescence, dry powder, set 2 (AID 624489); format: functional, cell-based; settings: A-375;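 also: actives are compounds lowering A375 viability meaning general cytotoxicity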
[15] = HeLa cell cytotoxicity, dose response, cytotoxicity control, 24 h, plate reader, powder samples, set 3 (AID 651864); format: functional, cell-based
[16] = T. cruzi intracellular amastigote growth inhibition, dose response, imaging, CA-I/72 strain, bovine embryo skeletal muscle, dry powder (AID 651885); format: functional, cell-based
Protein skinhead-1 = molecular target: T1, Protein skinhead-1 (Caenorhabditis elegans, UniProt P34707); format: functional
T1 sequence (P34707 whole entry): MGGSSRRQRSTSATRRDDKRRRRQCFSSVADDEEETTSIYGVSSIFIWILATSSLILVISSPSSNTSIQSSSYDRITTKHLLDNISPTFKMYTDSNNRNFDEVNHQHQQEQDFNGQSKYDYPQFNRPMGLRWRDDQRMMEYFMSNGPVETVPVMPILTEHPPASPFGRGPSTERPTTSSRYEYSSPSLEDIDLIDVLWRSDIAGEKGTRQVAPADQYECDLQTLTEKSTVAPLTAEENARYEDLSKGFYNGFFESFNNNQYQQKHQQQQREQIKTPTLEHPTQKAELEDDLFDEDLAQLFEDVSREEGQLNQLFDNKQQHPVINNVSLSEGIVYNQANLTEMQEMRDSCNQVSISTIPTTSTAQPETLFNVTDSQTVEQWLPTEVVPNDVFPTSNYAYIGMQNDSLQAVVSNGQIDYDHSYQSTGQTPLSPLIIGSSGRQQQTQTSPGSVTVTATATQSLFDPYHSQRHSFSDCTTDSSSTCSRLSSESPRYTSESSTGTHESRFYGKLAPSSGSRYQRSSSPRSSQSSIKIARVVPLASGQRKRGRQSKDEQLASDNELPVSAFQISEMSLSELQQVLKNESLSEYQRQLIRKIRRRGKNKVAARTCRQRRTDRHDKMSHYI

[17] = molecular target: Peroxisome proliferator-activated receptor gamma/Nuclear receptor coactivator 3 (Homo sapiens, UniProt P37231); assay: TR-FRET dose response biochemical High Throughput Screening assay for agonists of the steroid receptor coactivator 3 (SRC-3) recruitment by the peroxisome proliferator-activated receptor gamma (PPAR gamma): non-selective agonists. [Related pubchem assays: 1301 (Confirmation screen.), 1048 (Primary screen.)]; format: functional
[18] = ADAM10 inhibitors, peptide cleavage, dose response, biochemical, QFRET (AID 743254);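 also: ADAM10 enzyme with the DM2 quenched FRET peptide as substrate; EDANS fluorescence gain as the protease cuts the substrate; inhibitor potency against ADAM10 proteolytic activity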
[19] = molecular target: Disintegrin and metalloproteinase domain-containing protein 17 (Homo sapiens, UniProt P78536); assay: ADAM17 protease inhibitors, dose response, counter-screen for ADAM10 exosite inhibitor project, biochemical, quenched FRET substrate (AID 743253)
[20] = molecular target: Peroxisome proliferator-activated receptor gamma/Nuclear receptor coactivator 2 (Homo sapiens, UniProt P37231); assay: (§1) TR-FRET dose response biochemical High Throughput Screening assay for agonists of the steroid receptor coactivator 2 (SRC-2) recruitment by the peroxisome proliferator-activated receptor gamma (PPAR gamma): non-selective agonists. [Related pubchem assays: 1297, 1032 ]; format: functional
[21] = molecular target: Peroxisome proliferator-activated receptor gamma/Nuclear receptor coactivator 1 (Homo sapiens, UniProt P37231); assay: as §1, with “1 (SRC-1)” for “2 (SRC-2)”, “assays (depositor defined):AID1300, AID1808, AID504735, AID631]” for “assays: 1297, 1032 ]”; format: protein assay
[22] = HepG2 cell cytotoxicity, dose response, cytotoxicity control, plate reader, dry powder samples (AID 1159569); format: functional, cell-based;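 also: inhibitor potency with signal falling toward the positive control level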
[23] = P. falciparum 3D7-ScDHODH growth inhibitors, dose response, SYBR Green, dry powder samples (AID 1159570); format: functional, cell-based;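 also: parasite growth measured after 72 hours of compound exposure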
[24] = P. falciparum Dd2 growth inhibitors, dose response, SYBR Green, cherry-picked samples (AID 1159567); format: functional, cell-based
[25] = P. falciparum Dd2 growth inhibitors, dose response, SYBR Green, dry powder samples (AID 1159566); format: functional, cell-based;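 also: potency for growth inhibition with lower SYBR green DNA signal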
[26] = P. falciparum ATP4 D1247Y mutant growth inhibitors, dose response, NITD609-resistant line, SYBR Green, dry powder (AID 1159571); format: functional, cell-based;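 also: parasites synchronized at ring stage by sorbitol before testing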
[27] = molecular target: COUP transcription factor 2 (Homo sapiens, UniProt P24468); assay: Luminescence-based cell-based high throughput dose response assay to identify inhibitors of COUP-TFII (NR2F2).; format: functional;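 also: HEK293 cells transiently cotransfected with COUP-TFII expression vector and reporter; luciferase reporter luminescence driven by COUP-TFII from the pX2-168 reporter plasmid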
[28] = Shn3 3'UTR reporter inhibitors, dose response, cell-based, Clone20 osteoblasts, firefly luciferase, cherry-picked (AID 624132); format: functional;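 also: firefly luciferase luminescence from reporter carrying the Shn3 3'UTR in osteoblasts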
[29] = off-target signal loss in HeLa-CEM21 co-culture – HeLa F-luc CTL cells, cherry-picked, counter-screen for HIV-1 Env fusion inhibitor project, dose response (AID 652040); format: functional, cell-based;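 also: potency for signal decrease marking cytotoxic or nonspecific inhibition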
[30] = control 3'UTR Renilla luciferase suppression, dose response, counter-screen for Shn3 inhibitor project, cell-based, Clone20-Shn3RL, cherry-picked (AID 624133); format: functional
Galanin receptor type 3 = Galanin receptor type 3 (Homo sapiens, UniProt O60755); assay: Fluorescence-based cell-based primary high throughput dose response assay to identify antagonists of the Galanin Receptor 3 (GalR3).; format: functional
[31] = inhibitors of clade B AD8 Env fusion, dose response, cell-based, cherry-pick (AID 652062); format: functional;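 also: luciferase signal from cell-cell fusion driven by HIV-1 clade B AD8 Env; potency is for inhibitors of fusion seen as a drop in luminescence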
[32] = cytotoxicity in HEK-293T cells, dose response, cytotoxicity control for BCR NF-kB inhibitor project, luminescence, B-cell screen hits (AID 489021); format: functional, cell-based;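 also: HEK-293T cells carrying an NF-kB luciferase reporter; cells exposed to compound for about 14 hours before viability readout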
cells = format: functional, cell-based; settings: HEK-CNG
[33] = HepG2 cell cytotoxicity, dose response, cytotoxicity control for Shn3 inhibitor project, CellTiter-Glo, cherry-picked (AID 624134); format: functional, cell-based

Sequence of Paired box protein Pax-8 (Q06710 whole entry): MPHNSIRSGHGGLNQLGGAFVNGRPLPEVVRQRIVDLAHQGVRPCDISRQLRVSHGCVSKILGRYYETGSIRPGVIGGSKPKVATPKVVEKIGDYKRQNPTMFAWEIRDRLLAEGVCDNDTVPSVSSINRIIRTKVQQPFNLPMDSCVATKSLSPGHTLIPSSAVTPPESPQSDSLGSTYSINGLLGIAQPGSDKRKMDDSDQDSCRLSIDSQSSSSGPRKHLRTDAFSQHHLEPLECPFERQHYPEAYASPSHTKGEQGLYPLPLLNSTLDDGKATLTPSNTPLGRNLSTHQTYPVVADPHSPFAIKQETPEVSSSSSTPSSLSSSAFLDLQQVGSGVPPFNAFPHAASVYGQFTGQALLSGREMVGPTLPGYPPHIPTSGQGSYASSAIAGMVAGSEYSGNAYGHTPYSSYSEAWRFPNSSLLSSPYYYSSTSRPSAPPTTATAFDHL
Sequence of Galanin receptor type 3 (O60755 whole entry, the tested form may be a part): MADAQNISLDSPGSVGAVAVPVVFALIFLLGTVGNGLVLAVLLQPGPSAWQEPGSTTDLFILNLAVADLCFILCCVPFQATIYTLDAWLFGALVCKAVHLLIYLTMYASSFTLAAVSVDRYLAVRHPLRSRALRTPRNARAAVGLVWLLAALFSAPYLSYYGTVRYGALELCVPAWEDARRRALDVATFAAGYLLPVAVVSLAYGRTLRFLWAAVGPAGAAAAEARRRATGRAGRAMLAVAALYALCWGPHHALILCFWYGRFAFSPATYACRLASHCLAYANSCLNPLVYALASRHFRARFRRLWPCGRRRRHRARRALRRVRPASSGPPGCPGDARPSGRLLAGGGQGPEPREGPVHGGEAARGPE
Sequence of Disintegrin and metalloproteinase domain-containing protein 17 (P78536 whole entry, the tested form may be a part): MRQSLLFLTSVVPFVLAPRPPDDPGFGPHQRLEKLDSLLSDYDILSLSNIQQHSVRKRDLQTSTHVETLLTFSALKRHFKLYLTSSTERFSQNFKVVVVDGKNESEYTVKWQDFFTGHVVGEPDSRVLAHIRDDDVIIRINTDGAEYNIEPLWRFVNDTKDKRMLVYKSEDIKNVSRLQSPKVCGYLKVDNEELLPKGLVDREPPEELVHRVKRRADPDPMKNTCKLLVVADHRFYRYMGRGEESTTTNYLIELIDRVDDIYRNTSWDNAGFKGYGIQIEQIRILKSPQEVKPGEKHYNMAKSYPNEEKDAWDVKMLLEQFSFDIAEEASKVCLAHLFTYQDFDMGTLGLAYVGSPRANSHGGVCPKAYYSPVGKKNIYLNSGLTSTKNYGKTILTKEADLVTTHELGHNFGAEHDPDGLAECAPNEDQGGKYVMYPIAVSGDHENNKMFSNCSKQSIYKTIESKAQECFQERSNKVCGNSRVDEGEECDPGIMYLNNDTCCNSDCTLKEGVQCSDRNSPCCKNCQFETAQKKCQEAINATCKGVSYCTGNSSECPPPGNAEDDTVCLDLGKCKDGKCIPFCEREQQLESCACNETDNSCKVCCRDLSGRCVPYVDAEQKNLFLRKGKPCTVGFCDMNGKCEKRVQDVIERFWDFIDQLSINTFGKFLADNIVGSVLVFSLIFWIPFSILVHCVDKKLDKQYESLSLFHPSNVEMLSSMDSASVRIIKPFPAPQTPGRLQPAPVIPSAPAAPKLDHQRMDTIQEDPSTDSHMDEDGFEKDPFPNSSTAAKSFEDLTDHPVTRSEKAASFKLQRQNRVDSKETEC
Sequence of Peroxisome proliferator-activated receptor gamma/Nuclear receptor coactivator 1 (P37231 whole entry): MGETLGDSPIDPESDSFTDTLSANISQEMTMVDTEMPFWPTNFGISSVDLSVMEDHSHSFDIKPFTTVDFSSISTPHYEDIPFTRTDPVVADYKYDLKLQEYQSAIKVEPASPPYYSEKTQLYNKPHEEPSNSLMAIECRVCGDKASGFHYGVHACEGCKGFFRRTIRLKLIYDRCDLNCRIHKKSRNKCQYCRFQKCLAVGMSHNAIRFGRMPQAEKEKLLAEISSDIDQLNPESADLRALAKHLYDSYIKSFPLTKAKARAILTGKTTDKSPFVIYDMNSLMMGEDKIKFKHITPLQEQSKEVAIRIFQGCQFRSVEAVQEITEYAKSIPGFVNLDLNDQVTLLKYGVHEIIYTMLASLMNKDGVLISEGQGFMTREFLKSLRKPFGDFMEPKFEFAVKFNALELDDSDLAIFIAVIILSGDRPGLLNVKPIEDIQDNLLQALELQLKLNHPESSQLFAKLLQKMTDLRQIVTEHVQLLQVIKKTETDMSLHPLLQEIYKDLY
Sequence of Peroxisome proliferator-activated receptor gamma/Nuclear receptor coactivator 1 (Q15788 whole entry, further chain): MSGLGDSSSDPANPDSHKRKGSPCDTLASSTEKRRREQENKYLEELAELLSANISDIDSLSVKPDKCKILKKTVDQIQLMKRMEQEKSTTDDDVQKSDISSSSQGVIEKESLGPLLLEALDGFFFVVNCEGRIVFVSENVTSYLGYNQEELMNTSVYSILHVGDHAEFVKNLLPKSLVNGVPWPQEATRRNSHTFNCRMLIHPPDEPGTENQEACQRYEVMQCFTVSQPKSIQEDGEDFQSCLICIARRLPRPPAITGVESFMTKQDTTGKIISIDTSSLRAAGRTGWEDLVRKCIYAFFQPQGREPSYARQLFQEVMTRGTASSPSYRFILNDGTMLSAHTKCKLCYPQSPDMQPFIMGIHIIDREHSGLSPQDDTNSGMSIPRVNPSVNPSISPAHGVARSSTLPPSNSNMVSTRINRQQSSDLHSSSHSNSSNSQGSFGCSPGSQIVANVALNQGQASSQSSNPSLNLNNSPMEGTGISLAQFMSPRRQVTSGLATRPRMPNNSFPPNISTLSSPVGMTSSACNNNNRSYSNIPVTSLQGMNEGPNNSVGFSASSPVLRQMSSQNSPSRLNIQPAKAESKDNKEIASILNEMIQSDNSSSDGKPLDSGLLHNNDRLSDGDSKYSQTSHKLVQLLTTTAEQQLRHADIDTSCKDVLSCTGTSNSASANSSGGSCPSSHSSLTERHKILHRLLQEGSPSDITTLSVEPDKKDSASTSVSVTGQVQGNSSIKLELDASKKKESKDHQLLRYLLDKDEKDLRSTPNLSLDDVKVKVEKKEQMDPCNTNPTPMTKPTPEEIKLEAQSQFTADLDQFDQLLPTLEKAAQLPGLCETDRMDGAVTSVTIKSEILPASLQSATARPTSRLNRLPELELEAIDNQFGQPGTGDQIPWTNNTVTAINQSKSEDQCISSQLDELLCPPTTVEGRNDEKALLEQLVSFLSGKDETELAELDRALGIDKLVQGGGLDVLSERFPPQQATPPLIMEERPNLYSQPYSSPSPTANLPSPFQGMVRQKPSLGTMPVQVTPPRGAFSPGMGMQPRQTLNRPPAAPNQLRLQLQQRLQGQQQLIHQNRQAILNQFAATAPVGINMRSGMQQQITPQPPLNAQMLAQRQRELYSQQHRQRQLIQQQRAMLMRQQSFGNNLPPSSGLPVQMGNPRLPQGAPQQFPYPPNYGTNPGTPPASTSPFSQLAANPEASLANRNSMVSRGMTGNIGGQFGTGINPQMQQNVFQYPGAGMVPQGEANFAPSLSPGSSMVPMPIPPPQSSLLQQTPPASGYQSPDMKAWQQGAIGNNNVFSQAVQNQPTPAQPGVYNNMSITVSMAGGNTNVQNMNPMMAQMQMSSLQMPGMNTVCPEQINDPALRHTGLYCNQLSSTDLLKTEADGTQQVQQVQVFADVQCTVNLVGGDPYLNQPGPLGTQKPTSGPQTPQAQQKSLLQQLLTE
Sequence of COUP transcription factor 2 (P24468 whole entry): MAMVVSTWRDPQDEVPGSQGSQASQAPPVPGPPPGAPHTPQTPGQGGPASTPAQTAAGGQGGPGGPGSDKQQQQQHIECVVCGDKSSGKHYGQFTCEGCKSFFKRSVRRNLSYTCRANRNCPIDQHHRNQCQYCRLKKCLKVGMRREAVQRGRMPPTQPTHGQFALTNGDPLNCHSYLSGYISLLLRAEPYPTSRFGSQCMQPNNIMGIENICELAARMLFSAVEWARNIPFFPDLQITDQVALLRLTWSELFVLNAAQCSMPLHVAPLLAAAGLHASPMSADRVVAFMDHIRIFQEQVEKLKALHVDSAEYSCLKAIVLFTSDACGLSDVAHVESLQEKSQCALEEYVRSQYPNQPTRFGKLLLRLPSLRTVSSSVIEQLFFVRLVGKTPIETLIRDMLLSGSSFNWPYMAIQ
Sequence of Kappa-type opioid receptor (P41145 whole entry): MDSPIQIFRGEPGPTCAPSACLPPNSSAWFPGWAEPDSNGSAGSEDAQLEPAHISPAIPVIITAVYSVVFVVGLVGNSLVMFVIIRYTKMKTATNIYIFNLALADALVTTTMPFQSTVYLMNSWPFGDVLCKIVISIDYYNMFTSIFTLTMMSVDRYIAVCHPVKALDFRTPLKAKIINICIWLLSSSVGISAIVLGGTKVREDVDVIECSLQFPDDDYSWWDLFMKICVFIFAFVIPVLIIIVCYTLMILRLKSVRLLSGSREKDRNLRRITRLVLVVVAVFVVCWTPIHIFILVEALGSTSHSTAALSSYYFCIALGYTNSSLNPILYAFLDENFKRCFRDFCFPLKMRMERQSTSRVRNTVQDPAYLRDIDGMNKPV

Which IC90 [1] does the source give for O=S(=O)(Cc1ccccc1)c1nnc(-c2ccccc2)o1 here?
The IC90 was 2 µM (active).

And the IC90 [2]?
Its IC90 is 2 µM (active).

With C[C@H]1CN([C@@H](C)CO)C(=O)Cc2cc(NC(=O)NC3CCCCC3)ccc2O[C@@H]1CN(C)Cc1ccc(-c2ccccc2)cc1 as the compound, how does the AC50 [3] read?
The AC50 was > 70 µM (inactive).

And the AC50 [4]?
Its AC50 is 19.3 µM (active).

What about the AC50 [5] of the same compound?
Its AC50 is > 70 µM (inactive).

What about the AC50 [6] of the same compound?
Its AC50 is 20.8 µM (active).

And the AC50 (Paired box protein Pax-8)?
The AC50 was 14.5 µM (active).

For COC(=O)c1cc(Br)cnc1N1CCC(OC2CCCCC2O)CC1 (centres undefined), which IC50 [7] is on record?
The IC50 was > 50 µM (inactive).

Which results are given for C[C@@H]1CCCCO[C@H](CN(C)Cc2ccc(C(F)(F)F)cc2)[C@H](C)CN([C@@H](C)CO)C(=O)c2cc(NC(=O)c3ccccc3)ccc2O1?
AC50 [8]: 33.2 µM (active); AC50 [9]: 42.4 µM (active); AC50 [10]: 17.8 µM (active); AC50 (Vero): 28.7 µM (active); AC50 (Paired box protein Pax-8): 19.1 µM (active)

For O=C(C1CC1)N1CCCCN2[C@@H](CO)[C@H](c3ccc(-c4cccc(F)c4)cc3)[C@@H]2C1, which AC50 [11] is on record?
The AC50 was 0.312 µM (active).

And the AC50 [12]?
Its AC50 is 26.7 µM (active).

Which AC50 [13] does the source give for C=CCNC1=C(N(C)C(C)=O)C(=O)c2ccccc2C1=O here?
Its AC50 is 8.92 µM (active).

What about the AC50 [14] of the same compound?
Its AC50 is 2.59 µM (active).

For CCn1nccc1NCc1ccc(N2CCCC2)cc1, which AC50 [15] is on record?
Its AC50 is > 160 µM (inactive).

Which IC50 [16] does the source give for CC(C)N1C[C@H](C)[C@@H](CN(C)C(=O)OC(C)(C)C)Oc2c(NC(=O)c3ccccc3)cccc2C1=O here?
Its IC50 is > 20 µM (inactive).

For COc1ccc2nc(SCC(=O)Nc3ccc(S(=O)(=O)N4CCCC4)cc3)c(C#N)cc2c1, which IC50 (Protein skinhead-1) is on record?
Its IC50 is > 100 µM (inactive).

What about the EC50 [17] of the same compound?
The EC50 was > 26.5 µM (not active).

What about the IC50 [18] of the same compound?
Its IC50 is > 69.5 µM (inactive).

What about the IC50 [19] of the same compound?
Its IC50 is > 69.5 µM (inactive).

And the EC50 [20]?
Its EC50 is 7.11 µM (active).

What about the EC50 [21] of the same compound?
The EC50 was 7.32 µM (active).

Which AC50 [22] does the source give for CCCN(C)C[C@@H]1Oc2cc(C#Cc3cccnc3)ccc2S(=O)(=O)N([C@@H](C)CO)C[C@H]1C here?
The AC50 was 79.5 µM (active).

What about the AC50 [23] of the same compound?
Its AC50 is 3.59 µM (active).

What about the AC50 [24] of the same compound?
Its AC50 is 2.13 µM (active).

What about the AC50 [25] of the same compound?
The AC50 was 2.62 µM (active).

What about the AC50 [26] of the same compound?
Its AC50 is 2.99 µM (active).

Which IC50 [27] does the source give for Cc1cc(C)c(CN2CCN(C(=O)Cn3cnc4c(NCc5ccccc5)ncnc43)CC2)c(C)c1 here?
The IC50 was 2.71 µM (active).

What about the AC50 [28] of the same compound?
Its AC50 is 0.417 µM (active).

What about the AC50 [29] of the same compound?
The AC50 was 27.3 µM (active).

And the AC50 [30]?
The AC50 was 0.818 µM (active).

What about the IC50 (Galanin receptor type 3) of the same compound?
The IC50 was 0.363 µM (active).

And the AC50 [31]?
The AC50 was 1.59 µM (active).

And the IC50 [32]?
The IC50 was > 80 µM (inactive).

And the EC50 (cells)?
The EC50 was > 29.9 µM (inactive).

And the AC50 [33]?
Its AC50 is 0.773 µM (active).
